Results taken from patent publication US20040006103A1, “Use of chloroquine, hydroxychloroquine and 4 amino-quinolinic derivatives to obtain a drug for the anti retroviral therapy, active towards HIV sensitive strains and towards HIV strains which are resistant to both nucleosidic and non-nucleosidic reverse transcriptase inhibitors and to proteases …” (VALPHARMA S.A., priority 2002, published 2004).
Read-outs that look alike come from different tables or passages of the source.

Experiments:
[1] = tested on: HIV-1 clinical isolated, characterised by mutations in the RT gene inducing geno-phenotypic resistance to 3TC; assay: p24 production susceptibility test (ACTG protocol), Table 3; type: cell-based; settings: for EC50: Human immunodeficiency virus 1, PBMC, read-out: E.C.50 CQ; for S.I. CQ / Fen. CQ (fold): PBMC; for S.I. CQ: I.C.50/E.C.50; for Fen. CQ (fold): ratio to HIV-IIIB
Excerpt: (§1) For the phenotype of the nucleosidic, non-nucleosidic and proteases inhibitors was utilised a method which consider the use of human PBMC and the protocol standardised by the AIDS Clinical Trials Group, after verifying the genotype by sequence analysis.
(§2) In order to assay in vitro the susceptibility to chloroquine and hydroxychloroquine of the viral strains, it was used the protocol of the ACTG which is characterised by the measure, of the production of antigen p24 in strongly infected cells.
(§3) The susceptibility of the viral strains to chemotherapics was determined in cell cultures, prepared in 96 wells microplates, using, for the infection, 0.1 MOI.
(§4) The supernatant of the infected cultures (either in absence or in presence of different concentrations of chemotherapic) were tested for the production of p24 after 7 days, using an ELISA test which is commercially available.
At the same time non-infected cells were incubated with concentrations of chloroquine and hydroxychloroquine ranging from 0 to 50 uM to evaluate the toxicity of the compound.
(§5) After 4 day from the infection, half the cellular medium was replaced with a medium containing the corresponding dilution of chloroquine and hydroxychloroquine. The percentage of inhibition of the HIV replication, induced by chloroquine and hydroxychloroquine, was determined, after 7 day from the infection, comparing the levels of p24 of this cultures and that of the control, infected and not treated with chloroquine and hydroxychloroquine.
(§6) Therefore, the E.C.50 of chloroquine and hydroxychloroquine expresses the concentration of chemotherapic that inhibits the 50% of production of p24 and the values were calculated using linear and non linear regression analysis (the significativity for the non linear regression was R^2>0.95).
(§7) In the same experimental conditions and in the same day, but with similar concentrations of chloroquine and hydroxychloroquine, it was evaluated the vitality of the infect cell cultures, and this was expressed as I.C.50.
(§8) I.C.50 (Inhibitory Concentration) indicates the concentration of the chemotherapic agent inhibiting the vitality of the cell cultures at a rate of 50%, when there is not infection.

[2] = tested on: HIV-1 clinical isolated, characterised by mutations in the RT gene inducing geno-phenotypic resistance to d4T; assay: p24 production susceptibility test (ACTG protocol), Table 4; type: cell-based; settings: for EC50: Human immunodeficiency virus 1, PBMC, read-out: E.C.50 CQ; for S.I. CQ / Fen. CQ (fold): PBMC; for S.I. CQ: I.C.50/E.C.50; for Fen. CQ (fold): ratio to HIV-IIIB
Excerpt: as §1, §2, §3, §4
(§9) The concentrations of chloroquine and hydroxychloroquine tested ranged from 0.5 to 15 uM. At the same time non-infected cells were incubated with concentrations of chloroquine and hydroxychloroquine ranging from 0 to 50 uM to evaluate the toxicity of the compound.
as §5, §6, §7, §8

[3] = tested on: HIV-1 strains geno-phenotypically resistant to NVP; assay: p24 production susceptibility test, Table 6, MT-2 cells; type: cell-based; settings: for EC50: Human immunodeficiency virus 1, MT2, MT-2, read-out: E.C.50 CQ; for S.I. CQ / Fen. CQ (fold): MT-2; for S.I. CQ: I.C.50/E.C.50; for Fen. CQ (fold): ratio to HIV-IIIB
Excerpt: as §1, §2, §3, §4, §9, §5, §6, §7, §8

[4] = tested on: HIV-1 strains geno-phenotypically resistant to EFV; assay: p24 production susceptibility test, Table 7, MT-2 cells; type: cell-based; settings: for EC50: Human immunodeficiency virus 1, MT2, MT-2, read-out: E.C.50 CQ; for S.I. CQ / Fen. CQ (fold): MT-2; for S.I. CQ: I.C.50/E.C.50; for Fen. CQ (fold): ratio to HIV-IIIB
Excerpt: as §1, §2, §3, §4, §9, §5, §6, §7, §8

[5] = tested on: HIV-1 clinical isolated, characterised by mutations on the protease gene inducing geno-phenotypic resistance to NFV; assay: p24 production susceptibility test (ACTG protocol), Table 10, PBMC; type: cell-based; settings: for S.I. CQ: I.C.50/E.C.50; for Fen. CQ (fold): ratio to HIV-IIIB; for EC50: Human immunodeficiency virus 1, PBMC, read-out: E.C.50 CQ
Excerpt: as §1, §2, §3, §4, §9, §5, §6, §7, §8

[6] = tested on: HIV-1 strains cultivated in PBMC and isolated from patient naive to the treatment; assay: p24 production susceptibility test (ACTG protocol), Table 11; type: cell-based; settings: for EC50: Human immunodeficiency virus 1, PBMC; for S.I. CQ: I.C.50/E.C.50
Procedure: as §2, §3, §4, §9, §5, §6, §7, §8

[7] = tested on: viruses resistant to both reverse transcriptase and protease inhibitors; assay: p24 production susceptibility test, summary for resistant viruses; type: cell-based, HIV-1; settings: Human immunodeficiency virus 1, range
Procedure: as §2, §3
The supernatant of the infected cultures (either in absence or in presence of different concentrations of chemotherapic) were tested for the production of p24 after 7 days, using an ELISA test which is commercially available. […]
as §5, §6

[8] = Gen. M4IL E44D D67N M184V R211K T215Y
[9] = Gen. M41L D67N V118I M184V T215Y
[10] = Gen. K65R F77L Y115F Q151M M184V

CCN(CC)CCCC(C)Nc1ccnc2cc(Cl)ccc12 (stereo not drawn) [CQ, chloroquine]
EC50 [1, 8]: 3000 nM | EC50 [1, 9]: 3500 nM | EC50 ([1]; Gen. M184I): 2500 nM | EC50 ([1]; Gen. M184V): 3200 nM | S.I. CQ [1, 8]: 3 | Fen. CQ (fold) [1, 8]: 2.1X fold | S.I. CQ [1, 9]: 3.4 | Fen. CQ (fold) [1, 9]: 1.9X fold | S.I. CQ ([1]; Gen. M184I): 3.6 | Fen. CQ (fold) ([1]; Gen. M184I): 1.1X fold | S.I. CQ ([1]; Gen. M184V): 2.5 | Fen. CQ (fold) ([1]; Gen. M184V): 1.4X fold | EC50 [2, 10]: 3500 nM | EC50 ([2]; Gen. K65R F116Y Q151M): 3500 nM | EC50 ([2]; Gen. M41I T69SSS T215Y): 2800 nM | EC50 ([2]; Gen. T69SSS T215Y): 2800 nM | EC50 ([2]; Gen. V75I F77L F116Y Q151M): 2200 nM | S.I. CQ [2, 10]: 3.4 | Fen. CQ (fold) [2, 10]: 2.3X fold | S.I. CQ ([2]; Gen. K65R F116Y Q151M): 3.4 | Fen. CQ (fold) ([2]; Gen. K65R F116Y Q151M): 2.3X fold | S.I. CQ ([2]; Gen. M41I T69SSS T215Y): 3.4 | Fen. CQ (fold) ([2]; Gen. M41I T69SSS T215Y): 1.8X fold | S.I. CQ ([2]; Gen. T69SSS T215Y): 3.4 | Fen. CQ (fold) ([2]; Gen. T69SSS T215Y): 1.8X fold | S.I. CQ ([2]; Gen. V75I F77L F116Y Q151M): 3 | Fen. CQ (fold) ([2]; Gen. V75I F77L F116Y Q151M): 1.5X fold | EC50 ([3]; Gen. G190E): 3500 nM | EC50 ([3]; Gen. K103N): 3200 nM | EC50 ([3]; Gen. V106A): 2800 nM | EC50 ([3]; Gen. Y181C): 3800 nM | S.I. CQ ([3]; Gen. G190E): 6 | Fen. CQ (fold) ([3]; Gen. G190E): 1.9X fold | S.I. CQ ([3]; Gen. K103N): 6.2 | Fen. CQ (fold) ([3]; Gen. K103N): 1.7X fold | S.I. CQ ([3]; Gen. V106A): 7.8 | Fen. CQ (fold) ([3]; Gen. V106A): 1.5X fold | S.I. CQ ([3]; Gen. Y181C): 6 | Fen. CQ (fold) ([3]; Gen. Y181C): 2.1X fold | EC50 ([4]; Gen. K101D K103N): 2800 nM | EC50 ([4]; Gen. K103N V108D): 2200 nM | EC50 ([4]; Gen. K103N Y181C): 2500 nM | EC50 ([4]; Gen. K103N): 2200 nM | EC50 ([4]; Gen. L100I K103N): 3200 nM | EC50 ([4]; Gen. Y181C): 1800 nM | S.I. CQ ([4]; Gen. K101D K103N): 7.8 | Fen. CQ (fold) ([4]; Gen. K101D K103N): 1.8X fold | S.I. CQ ([4]; Gen. K103N V108D): 6.8 | Fen. CQ (fold) ([4]; Gen. K103N V108D): 1.4X fold | S.I. CQ ([4]; Gen. K103N Y181C): 8 | Fen. CQ (fold) ([4]; Gen. K103N Y181C): 1.6X fold | S.I. CQ ([4]; Gen. K103N): 8.5 | Fen. CQ (fold) ([4]; Gen. K103N): 1.4X fold | S.I. CQ ([4]; Gen. L100I K103N): 6.2 | Fen. CQ (fold) ([4]; Gen. L100I K103N): 2.1X fold | S.I. CQ ([4]; Gen. Y181C): 8.5 | Fen. CQ (fold) ([4]; Gen. Y181C): 1.2X fold | S.I. CQ ([5]; Gen. D30N A71V): 5.5 | Fen. CQ (fold) ([5]; Gen. D30N A71V): 1X fold | S.I. CQ ([5]; Gen. D30N M46V A71V): 4 | Fen. CQ (fold) ([5]; Gen. D30N M46V A71V): 1.2X fold | S.I. CQ ([5]; Gen. G48V V92A): 3.2 | Fen. CQ (fold) ([5]; Gen. G48V V92A): 1.6X fold | S.I. CQ ([5]; Gen. V82F L90M): 3.4 | Fen. CQ (fold) ([5]; Gen. V82F L90M): 1.5X fold | EC50 ([5]; Gen. D30N A71V): 1800 nM | EC50 ([5]; Gen. D30N M46V A71V): 2200 nM | EC50 ([5]; Gen. G48V V92A): 3000 nM | EC50 ([5]; Gen. V82F L90M): 2800 nM | EC50 ([6]; HIV-1 virus sensitive to the anti-retroviral treatment, range over each experiment, read-out: E.C.50): 1500 to 3500 nM | EC50 ([6]; PBMC, Virus N°1, read-out: E.C.50 CQ): 1500 nM | EC50 ([6]; PBMC, Virus N°2, read-out: E.C.50 CQ): 2200 nM | EC50 ([6]; PBMC, Virus N°3, read-out: E.C.50 CQ): 1800 nM | EC50 ([6]; PBMC, Virus N°4, read-out: E.C.50 CQ): 2500 nM | EC50 ([6]; PBMC, Virus N°5, read-out: E.C.50 CQ): 2000 nM | S.I. CQ ([6]; PBMC, Virus N°1): 5 | S.I. CQ ([6]; PBMC, Virus N°2): 4 | S.I. CQ ([6]; PBMC, Virus N°3): 5 | S.I. CQ ([6]; PBMC, Virus N°4): 3.5 | S.I. CQ ([6]; PBMC, Virus N°5): 4 | EC50 [7]: 1500 to 3500 nM
